Source: US20230174571A1, “METHOD OF TREATING SHIP1-MEDIATED DISEASES USING PELOROL DERIVATIVES” (Zebrapeutics Inc., priority 2020, published 2023)

Columns and labels:
[1] = tested on: ConA-induced liver injury; assay: ConA-induced liver injury model; type: in vivo, mouse
Source text: Concanavalin A (ConA) induced liver injury model is an immune-mediated liver injury model, resembling viral and autoimmune hepatitis in humans. Intravenous delivery of ConA in mice is known to activate T cells, resulting in increased inflammatory cytokines such as TNF-α, IFN-r and IL-6 as well as decreased anti-inflammatory cytokine IL-10. The T cell infiltration into the liver leads to consequences of hepatocyte apoptosis and necrosis, resulting in increased levels of liver enzymes ALT and AST in plasma. (Zhou 2015) Methods: Five groups (n=5 each) of C57 mice were treated with a blank control, compound I-1 alone (10 mg/kg/d), ConA (15 mg/kg), ConA+compound I-1 (3 mg/kg/d) or ConA+compound I-1 (10 mg/kg/d). In each instance, compound I-1 was given 5 days before ConA injection (if applicable) via oral gavage twice a day. One hour after the last drug administration, ConA (15 mg/kg) was delivered intravenously. 12 hours after the ConA injection, orbital blood was taken from the eye and the enzyme biochemistry (plasma) and blood cell type tests were performed by analyzers.

[2] = tested on: CLP-induced sepsis; assay: Caecum Ligation and Puncture (CLP) sepsis model; type: in vivo, mouse; settings: CLP mice, oral gavage; vs. 20% in CLP group without drug
Source text: The mouse CLP model is well-accepted clinically relevant method for anti-sepsis drug testing. The surgical operation included opening of the mouse abdomen, ligation of the cecum and puncture of the ligated cecum with a needle. Rittirsch, 2009 Method was followed to induce Mid to High grade experimental sepsis to achieve 70-100% […] rate over 7 days after CLP operation.
Methods: Five groups (n=10 each) of mice were designed with (1) a blank control, (2) Sham control (abdomen operation was performed but without cecal ligation/puncture), (3) CLP group (operation with cecal ligation/puncture), (4) CLP+compound I-1 (MN100) (3 mg/kg/d), and (5) CLP+compound I-1 (MN100) (10 mg/kg/d). ZPR-MN100 (compound I-1) was given 3 days before CLP operation and continued to 7 days after CLP. ZPR-MN100 was delivered via oral gavage twice a day. […] Mouse condition and survival were recorded every day. Seven days after CLP, the experiment was terminated and survival curves were drawn using GraphPad Prism.

[3] = biological target: T1, PAC1 (Mus musculus, UniProt Q9ES52); assay: Small angle X-ray scattering of PAC1; settings: 190 μM PAC1 with 570 μM compound
T1 construct: PAC1 and PAC2 consists of phosphatase and C2 domain (residues aa 402-861 and aa 402-857 respectively); HMT-tag (His6-MBP-TEV site) (N); made in house; host or cells: E. coli
T1 sequence (Q9ES52 402-861): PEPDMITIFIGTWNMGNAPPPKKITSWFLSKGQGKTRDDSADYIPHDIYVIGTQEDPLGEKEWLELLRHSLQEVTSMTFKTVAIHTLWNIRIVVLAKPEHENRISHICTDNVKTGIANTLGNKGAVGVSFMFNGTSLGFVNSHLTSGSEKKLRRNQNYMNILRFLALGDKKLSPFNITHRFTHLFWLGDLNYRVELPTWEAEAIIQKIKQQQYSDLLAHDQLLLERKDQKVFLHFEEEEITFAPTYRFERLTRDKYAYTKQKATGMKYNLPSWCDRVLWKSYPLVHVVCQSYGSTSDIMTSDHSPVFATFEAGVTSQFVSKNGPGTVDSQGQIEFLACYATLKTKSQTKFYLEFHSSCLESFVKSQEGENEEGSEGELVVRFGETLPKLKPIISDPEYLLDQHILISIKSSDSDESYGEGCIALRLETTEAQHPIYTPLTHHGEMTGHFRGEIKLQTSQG
Experimental: Small angle X-ray scattering. PAC1 samples in 190 μM in 50 mM TrisHCl (pH7.4) 150 mM NaCl, 1 mM TCEP and 2% EtOH with and without 570 μM compound I-1 ([…]). Dynamic Light Scattering (DLS) data for PAC1 and PAC1-compound I-1 complexes were collected prior to SAXS data collection to confirm that all the samples are highly pure and suitable for data collection. The data collection was performed on a 3-pinhole camera (S-MAX3000; Rigaku Americas, The Woodlands, Tex.) equipped with a Rigaku MicroMaxp002 microfocus sealed tube (Cu Kα radiation at 1.54 Å) and a Confocal Max-Flux (CMF) optics system operating at 40 W (Rigaku). Scattering data were recorded using a 200 mm multiwire two-dimensional detector. The data for both samples and buffer were collected for 3 h for each sample within the range of 0.008≤s≤0.26 Å-1 and processed according to the method previously described, where s=4π sin θ/λ (Patel et al., 2011, Patel et al., 2010, Patel et al., 2012). The Normalized Spatial Discrepancy (NSD) of the non-liganded and liganded PAC1 models were 0.6 and 1.0 respectively.

[4] = tested on: DDIT4; assay: DDIT4 expression in macrophages; type: cell-based; settings: compound by itself
[5] = C57 mice, ConA 15 mg/kg i.v., compound 3 or 10 mg/kg/d oral gavage, 12 hours after ConA
[6] = repeat experiment, 10 mg/kg/d, dexamethasone 0.5 mg/kg/d as positive control

Row | Compound | BUN [1, 5] | TBIL [1, 5] | plasma ALT [1, 5] | plasma AST [1, 5] | ConA-induced ALT level [1, 6] | ConA-induced AST level [1, 6] | 7-day survival rate [2] [%] | overall conformation of PAC1 on binding (SAXS) [3] | DDIT4 expression [4]
1 | Cc1cc(O)cc2c1C1(C)CCC3C(C)(C)CCCC3(C)C1C2 (stereo not drawn) [Compound I-1] | significantly reduced | significantly reduced | significantly reduced | significantly reduced | significantly lowered | significantly lowered | 50 | results in a change in its overall conformation | –
2 | CC12CCC3C(C)(C)C(N)CCC3(C)C1Cc1cc(O)cc(O)c12 (stereo not drawn) [Compound I-2] | – | – | – | – | – | – | – | – | by itself able to induce DDIT4 expression
